Values quoted from earlier work, collected in patent US20080153167A1, “In vivo amplification of neural progenitor cells” (priority 2006, published 2008).

System: PDGF driven tumors
Conditions: Shih et al. 2004

Clc1ccc(Nc2nnc(Cc3ccncc3)c3ccccc23)cc1 [PTK787]
effect on PDGF driven tumors: caused high-grade tumors to acquire low-grade histology, but it did not completely eradicate tumor growth
